Results taken from patent US12479866B2, “Boron-containing rho kinase inhibitors” (Percipiad, Inc., priority 2019, dated 2025).

Assays:
ROCK1 = ROCK1 (Homo sapiens (Human), UniProt Q13464); test: ROCK1 ADP-Glo kinase enzyme inhibition assay; type: biochemical; conditions: read-out: ROCK1 IC50
Procedure: We measured ROCK and PKA kinase enzyme activity inhibition by compounds using commercially available ROCK1 (Promega Corporation, cat #V9581), ROCK2 (Promega, cat #V4045), and PKA kinase (Promega, cat #V4247) ADP-Glo™ assay kits. ADP-Glo™ Kinase Assay is a luminescent ADP detection assay that provides a homogeneous method to measure kinase activity by quantifying the amount of ADP produced during a kinase reaction. The assay is performed in two steps. First, after the kinase reaction, an equal volume of ADP-Glo™ Reagent is added to terminate the kinase reaction and deplete the remaining ATP. Second, the Kinase Detection Reagent is added to simultaneously convert ADP to ATP and allow the newly synthesized ATP to be measured using a luciferase/luciferin reaction. The light generated is measured using a luminometer. A complete protocol is included with the kits and is also available at the Promega website. The assay is briefly described below. • 1. Diluted enzyme, substrate, ATP, and compounds (inhibitors) in Kinase Buffer (40 mM Tris, 7.5, 20 mM MgCl2, 0.1 mg/ml BSA, 50 μM DTT). • 2. Added 1 μl of inhibitor, 2 μl of enzyme and 2 μl of substrate/ATP mix to the wells of 384-well low volume nonbinding assay plate A series of three-fold dilution of inhibitor was prepared and assayed for each inhibitor. • 3. Incubated at room temperature for 60 minutes. • 4. Added 5 μl of ADP-Glo™ Reagent. • 5. Incubated at room temperature for 60 minutes. • 6. Added 10 μl of Kinase Detection Reagent • 7. Incubated at room temperature for 30 minutes.
Recorded luminescence (Integration time 1 second) using a plate-based luminometer.
Calculated Percent Enzyme Activity: First subtract the signal of the negative control (no enzyme and no inhibitor) from each sample's signal. Then use the mean relative light units (RLU) values for the 0% kinase activity (neither inhibitor nor enzyme) and the 100% kinase activity (no compound) to calculate the other percent enzyme activities remaining in the presence of the different dilutions of inhibitor. […]

[1] = Stability in buffer, plasma, and blood (LC-MS/MS); type: in vitro ADME, human; design: half-life: dose or concentration left out as unconfirmed
Procedure: Stability in buffer, plasma, and blood. Study was conducted by Absorption Systems. Studies were carried out in pH 7.4 phosphate buffer, mixed-gender human plasma (Lot #HMN330460), and mixed-gender human whole blood (Lot #HMN 381096). […] The plasma and blood were obtained from BioIVT and collected on sodium heparin. They were adjusted to pH 7.4 prior to initiating the experiments. […] Aliquots of the DMSO solution were dosed into 1 mL of matrix, which had been pre-warmed to 37° C., at a final concentration of […]. The vials were kept in a benchtop Thermomixer® for the duration of the experiment. Aliquots (100 μL) were taken at each time point (0, 15, 30, 60, and 120 minutes) and added to 96-well plates, which had been pre-filled with 300 μL of acetonitrile (ACN). Samples were stored at 4° C. until the end of the experiment. After the final time point was sampled, the plate was mixed and then centrifuged at 3,000 rpm for 10 minutes. Aliquots of the supernatant were removed, diluted 1:1 into distilled water, and analyzed by LC-MS/MS (Table 21). The peak area response ratio to internal standard (PARR) was compared to the PARR at time 0 to determine the percent of test article remaining at each time point. Half-lives were calculated using GraphPad software, fitting to a single-phase exponential decay equation.

[2] = Octanol/buffer partition coefficient (log D7.4); type: physicochemical; conditions: n-octanol / pH 7.4 phosphate buffer, read-out: log D at pH 7.4
Procedure: In a single incubation, 15 μL of a 10 mM DMSO solution of each test article was added to test tubes, which contained 0.75 mL of n-octanol and 0.75 mL of pH 7.4 phosphate buffer. Testosterone was also introduced to each tube as an internal control, also at a dosing concentration of 100 μM. These samples were gently mixed on a benchtop rotator for 1 hour at room temperature. The tubes were then removed from the rotator and the aqueous and organic phases were allowed to separate for 1 hour. […] As a methods control, the log D of testosterone was also measured at a satisfactory value.

[3] = Solubility Assay #1, equilibrium solubility in pH 7.4 aqueous buffer; conditions: pH 7.4 phosphate buffer, thermodynamic from solid

Sequence of ROCK1 (Q13464 whole entry): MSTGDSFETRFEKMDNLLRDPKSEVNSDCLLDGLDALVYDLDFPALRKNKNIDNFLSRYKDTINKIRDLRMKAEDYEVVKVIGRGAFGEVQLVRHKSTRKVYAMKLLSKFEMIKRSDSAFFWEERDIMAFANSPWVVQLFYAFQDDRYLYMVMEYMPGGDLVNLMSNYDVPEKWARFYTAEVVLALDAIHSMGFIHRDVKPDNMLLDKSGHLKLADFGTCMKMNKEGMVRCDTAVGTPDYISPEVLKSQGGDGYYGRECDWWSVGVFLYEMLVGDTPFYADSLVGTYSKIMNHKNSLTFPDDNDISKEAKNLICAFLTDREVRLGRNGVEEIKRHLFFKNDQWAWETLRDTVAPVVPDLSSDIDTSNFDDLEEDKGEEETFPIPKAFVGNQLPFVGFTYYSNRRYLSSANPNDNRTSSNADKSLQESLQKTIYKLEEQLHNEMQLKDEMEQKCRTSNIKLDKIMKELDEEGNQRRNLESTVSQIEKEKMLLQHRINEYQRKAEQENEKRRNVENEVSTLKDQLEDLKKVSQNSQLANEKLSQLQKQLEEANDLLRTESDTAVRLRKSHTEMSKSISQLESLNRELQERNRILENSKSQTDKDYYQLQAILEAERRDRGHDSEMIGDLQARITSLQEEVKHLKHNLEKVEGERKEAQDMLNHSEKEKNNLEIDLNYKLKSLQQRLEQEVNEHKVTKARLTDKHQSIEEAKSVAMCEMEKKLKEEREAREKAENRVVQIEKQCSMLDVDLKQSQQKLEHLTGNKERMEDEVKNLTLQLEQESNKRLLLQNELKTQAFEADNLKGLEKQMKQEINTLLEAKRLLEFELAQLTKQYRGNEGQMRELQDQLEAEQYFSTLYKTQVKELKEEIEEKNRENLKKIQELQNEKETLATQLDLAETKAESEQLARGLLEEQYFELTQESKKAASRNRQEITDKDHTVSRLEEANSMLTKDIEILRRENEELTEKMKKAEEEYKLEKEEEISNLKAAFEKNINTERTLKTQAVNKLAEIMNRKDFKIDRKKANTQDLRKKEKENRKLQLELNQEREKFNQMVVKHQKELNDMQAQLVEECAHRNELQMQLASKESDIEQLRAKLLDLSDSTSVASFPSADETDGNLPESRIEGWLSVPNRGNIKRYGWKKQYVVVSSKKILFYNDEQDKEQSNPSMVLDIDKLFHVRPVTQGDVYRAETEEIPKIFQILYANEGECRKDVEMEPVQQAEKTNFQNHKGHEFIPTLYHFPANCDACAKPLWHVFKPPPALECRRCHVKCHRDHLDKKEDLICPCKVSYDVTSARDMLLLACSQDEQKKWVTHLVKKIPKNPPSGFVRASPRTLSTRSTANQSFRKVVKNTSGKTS

Cl.Cl.NCC(C(=O)Nc1ccc2cnccc2c1)c1ccc(B(O)O)cc1 (stereo not drawn) [Compound 10•2HCl]
IC50 (ROCK1): 54 nM | Percent Remaining ([1]; Buffer pH 7.4, 37° C., 0 min): 100% | Percent Remaining ([1]; Buffer pH 7.4, 37° C., 15 min): 102% | Percent Remaining ([1]; Buffer pH 7.4, 37° C., 30 min): 97% | Percent Remaining ([1]; Buffer pH 7.4, 37° C., 60 min): 101% | Percent Remaining ([1]; Buffer pH 7.4, 37° C., 120 min): 93% | half-life ([1]; both sexes, pH 7.4, human Plasma, 37° C.): > 2 h | half-life ([1]; both sexes, pH 7.4, human whole Blood, 37° C.): > 2 h | Percent Remaining ([1]; human Plasma, 37° C., 0 min): 100% | Percent Remaining ([1]; human Plasma, 37° C., 15 min): 82% | Percent Remaining ([1]; human Plasma, 37° C., 30 min): 106% | Percent Remaining ([1]; human Plasma, 37° C., 60 min): 83% | Percent Remaining ([1]; human Plasma, 37° C., 120 min): 91% | Percent Remaining ([1]; human whole Blood, 37° C., 0 min): 100% | Percent Remaining ([1]; human whole Blood, 37° C., 15 min): 92% | Percent Remaining ([1]; human whole Blood, 37° C., 30 min): 87% | Percent Remaining ([1]; human whole Blood, 37° C., 60 min): 100% | Percent Remaining ([1]; human whole Blood, 37° C., 120 min): 115% | half-life ([1]; pH 7.4 phosphate buffer, Buffer pH 7.4, 37° C.): > 2 h | logD [2]: 0.822 | solubility [3]: 39.1 µM
